Earlier results in patent US11447440B2, “Treprostinil monohydrate crystals and methods for preparation thereof” (CHIROGATE INTERNATIONAL INC., priority 2020, dated 2022).
Read-outs that look alike come from different tables or passages of the source.

Details: for Treprostinil dimer formation on standing: stability tests

| Treprostinil dimer formation (accelerated stability tests at 25° C., 30° C. and 40° C. for 6 months (Lot No. 01M07033)) | stability in comparison with the anhydrous Treprostinil crystal (storage at room temperature over a long period of time) | Treprostinil dimer formation on standing (at 5° C.) | Treprostinil dimer formation on standing (at higher temperature (than 25° C.)) | Treprostinil dimer formation on standing (standing at 25° C.) | SMILES |
| --- | --- | --- | --- | --- | --- |
| almost negligible | more stable |  |  |  | CCCCC[C@H](O)CC[C@@H]1[C@H]2Cc3c(cccc3OCC(=O)O)C[C@H]2C[C@H]1O.O [Treprostinil monohydrate crystal] |
|  |  | negligible | increased | continuing to form | CCCCC[C@H](O)CC[C@@H]1[C@H]2Cc3cccc(OCC(=O)O)c3C[C@H]2C[C@H]1O [anhydrous Treprostinil] |
